# According to patent US20070218150A1, “Active Oxygen Scavenging Agent and Moisturizing Agent Containing Wild Watermelon Extract” (priority 2004, published 2007):
# Test: active oxygen (hydroxyl radical) scavenging, competitive reaction analysis using salicylic acid oxidation as an index
# Type: biochemical
# Settings: 50 mg/l of citrulline solution; 25 degrees, 90 minutes, pH 7.4
# Description: The active oxygen scavenging ability of the wild watermelon fruit extract is assayed by competitive reaction analysis using salicylic acid oxidation as an index. Specifically, 2 mM salicylic acid and the wild watermelon fruit extract of various concentrations are dissolved in 50 mM phosphate buffer (pH 7.4). After that, by adding 0.6 mM of hydrogen peroxide, 0.15 mM of FeEDTA and 0.26 mM of ascorbic acid, hydroxyl radical is generated, and reacted at 25 degrees for 90 minutes. Quantitation of dihydroxyl benzoic acid (DHBA) generated by salicylic acid oxidation followed the method as set forth in the literature (Smirnofff and Cumbes (1989) Phytochemistry, 28: 1057-1060.)
compound,measurement,value
NC(=O)NCCC[C@H](N)C(=O)O [citrulline],inhibition of salicylic acid oxidation,6%
